Measurements: PMC5218480 (PLoS ONE, 2017)

System: MV-4-11 cells
Assay: Gene expression microarray analysis (Affymetrix PrimeView) and GSEA
Format: cell-based, human
Parameters: RFU PODN (11730768_x_at) / Fold change /veh PODN (11730768_x_at) / RFU LINC00158 (11744669_a_at) / Fold change /veh LINC00158 (11744669_a_at) / RFU DUSP10 (11751237_a_at) / Fold change /veh DUSP10 (11751237_a_at) / RFU ID3 (11757404_x_at) / Fold change /veh ID3 (11757404_x_at) / RFU PLEKHG5 (11737974_s_at) / Fold change /veh PLEKHG5 (11737974_s_at) / RFU LRRC4B (11730491_at) / Fold change /veh LRRC4B (11730491_at) / RFU GIMAP4 (11747438_a_at) / Fold change /veh GIMAP4 (11747438_a_at) / RFU KRT8 (11758183_x_at) / Fold change /veh KRT8 (11758183_x_at) / RFU CNN1 (11734310_a_at) / Fold change /veh CNN1 (11734310_a_at) / RFU VPS37D (11726825_at) / Fold change /veh VPS37D (11726825_at) / RFU C10orf10 (11716522_x_at) / Fold change /veh C10orf10 (11716522_x_at) / RFU KIR2DL2 /// KIR2DL4 /// KIR2DL5A /// KIR2DL5B /// KIR2DS1 /// KIR2DS2 /// KIR2DS3 /// KIR2DS4 /// KIR3DL3 /// KIR3DL3 /// KIR3DS1 (11738374_at) / Fold change /veh KIR2DL2 /// KIR2DL4 /// KIR2DL5A /// KIR2DL5B /// KIR2DS1 /// KIR2DS2 /// KIR2DS3 /// KIR2DS4 /// KIR3DL3 /// KIR3DL3 /// KIR3DS1 (11738374_at) / RFU C1QL1 (11718748_at) / Fold change /veh C1QL1 (11718748_at) / RFU TMPRSS4 (11747572_a_at) / Fold change /veh TMPRSS4 (11747572_a_at) / RFU HAMP (11756126_x_at) / Fold change /veh HAMP (11756126_x_at) / RFU RNFT2 (11725882_a_at) / Fold change /veh RNFT2 (11725882_a_at) / RFU NR4A2 (11747474_a_at) / Fold change /veh NR4A2 (11747474_a_at) / RFU ABCC12 (11746883_a_at) / Fold change /veh ABCC12 (11746883_a_at) / RFU TMEM136 (11760407_x_at) / Fold change /veh TMEM136 (11760407_x_at) / RFU CLDN22 /// WWC2 (11732394_at) / Fold change /veh CLDN22 /// WWC2 (11732394_at) / RFU HLA-DPB1 (11760878_x_at) / Fold change /veh HLA-DPB1 (11760878_x_at) / RFU SPINT1 (11716480_a_at) / Fold change /veh SPINT1 (11716480_a_at) / RFU GAP43 (11754022_s_at) / Fold change /veh GAP43 (11754022_s_at) / RFU A4GNT (11735810_at) / Fold change /veh A4GNT (11735810_at) / RFU PRB3 (11715151_x_at) / Fold change /veh PRB3 (11715151_x_at) / RFU TUBB4B (11761932_at) / Fold change /veh TUBB4B (11761932_at) / RFU CAPN14 (11732068_a_at) / Fold change /veh CAPN14 (11732068_a_at) / RFU TMCC2 (11721928_a_at) / Fold change /veh TMCC2 (11721928_a_at) / RFU IRGQ (11745062_a_at) / Fold change /veh IRGQ (11745062_a_at) / RFU FAM174B (11720279_a_at) / Fold change /veh FAM174B (11720279_a_at) / RFU TMPRSS4 (11748680_a_at) / Fold change /veh TMPRSS4 (11748680_a_at) / RFU FAM212B (11763350_a_at) / Fold change /veh FAM212B (11763350_a_at) / RFU PLEKHG5 (11743358_a_at) / Fold change /veh PLEKHG5 (11743358_a_at) / RFU ZSCAN30 (11745921_a_at) / Fold change /veh ZSCAN30 (11745921_a_at) / RFU CMKLR1 (11741424_a_at) / Fold change /veh CMKLR1 (11741424_a_at) / RFU LOC101060620 /// MAPK8IP1 (11723275_at) / Fold change /veh LOC101060620 /// MAPK8IP1 (11723275_at) / RFU SPTSSB (11747773_x_at) / Fold change /veh SPTSSB (11747773_x_at) / RFU PRSS12 (11739890_at) / Fold change /veh PRSS12 (11739890_at) / RFU BIN1 (11741810_x_at) / Fold change /veh BIN1 (11741810_x_at) / RFU WNT11 (11732464_a_at) / Fold change /veh WNT11 (11732464_a_at) / RFU C10orf10 (11716521_a_at) / Fold change /veh C10orf10 (11716521_a_at) / RFU C5orf56 (11738089_at) / Fold change /veh C5orf56 (11738089_at) / RFU CYB561 (11721691_x_at) / Fold change /veh CYB561 (11721691_x_at) / RFU ANKRD19P (11752326_a_at) / Fold change /veh ANKRD19P (11752326_a_at) / RFU OR2T12 /// OR2T33 /// OR2T8 (11738714_s_at) / Fold change /veh OR2T12 /// OR2T33 /// OR2T8 (11738714_s_at) / RFU VCAN (11748164_a_at) / Fold change /veh VCAN (11748164_a_at) / RFU JSRP1 (11732532_at) / Fold change /veh JSRP1 (11732532_at) / RFU KRTAP10-11 (11738290_x_at) / Fold change /veh KRTAP10-11 (11738290_x_at) / RFU MYO3A (11730013_a_at) / Fold change /veh MYO3A (11730013_a_at) / RFU EBF3 (11725865_a_at) / Fold change /veh EBF3 (11725865_a_at) / RFU CAMK2N1 (11719241_x_at) / Fold change /veh CAMK2N1 (11719241_x_at) / RFU C5orf56 (11738088_a_at) / Fold change /veh C5orf56 (11738088_a_at) / RFU OLFML3 (11715873_a_at) / Fold change /veh OLFML3 (11715873_a_at) / RFU LOC100653217 /// NTM (11731650_a_at) / Fold change /veh LOC100653217 /// NTM (11731650_a_at) / RFU MAPK11 (11762145_a_at) / Fold change /veh MAPK11 (11762145_a_at) / RFU FIZ1 (11724087_x_at) / Fold change /veh FIZ1 (11724087_x_at) / RFU OASL (11726364_x_at) / Fold change /veh OASL (11726364_x_at) / RFU SOX15 (11748057_x_at) / Fold change /veh SOX15 (11748057_x_at) / RFU CD79A (11719716_a_at) / Fold change /veh CD79A (11719716_a_at) / RFU HIST1H1D (11736915_at) / Fold change /veh HIST1H1D (11736915_at) / RFU CASKIN2 (11723855_a_at) / Fold change /veh CASKIN2 (11723855_a_at) / RFU LOC730098 (11760151_x_at) / Fold change /veh LOC730098 (11760151_x_at) / RFU OR4N2 (11742367_at) / Fold change /veh OR4N2 (11742367_at) / RFU PRRT2 (11749266_a_at) / Fold change /veh PRRT2 (11749266_a_at) / RFU SNX32 (11753110_a_at) / Fold change /veh SNX32 (11753110_a_at) / RFU CDHR5 (11726645_a_at) / Fold change /veh CDHR5 (11726645_a_at) / RFU RCAN1 (11760418_a_at) / Fold change /veh RCAN1 (11760418_a_at) / RFU FAM167A (11723789_a_at) / Fold change /veh FAM167A (11723789_a_at) / RFU FAM26E (11764081_at) / Fold change /veh FAM26E (11764081_at) / RFU ISYNA1 (11749810_s_at) / Fold change /veh ISYNA1 (11749810_s_at) / RFU ACY1 (11761880_at) / Fold change /veh ACY1 (11761880_at) / RFU 11764098_at / Fold change /veh 11764098_at / RFU SAMD14 (11745864_x_at) / Fold change /veh SAMD14 (11745864_x_at) / RFU NPB (11741838_a_at) / Fold change /veh NPB (11741838_a_at) / RFU TMPRSS6 (11731388_a_at) / Fold change /veh TMPRSS6 (11731388_a_at) / RFU KRTAP10-2 (11738614_at) / Fold change /veh KRTAP10-2 (11738614_at) / RFU ARHGAP8 /// PRR5-ARHGAP8 (11727945_x_at) / Fold change /veh ARHGAP8 /// PRR5-ARHGAP8 (11727945_x_at) / RFU KRTAP5-7 /// NADSYN1 (11734609_at) / Fold change /veh KRTAP5-7 /// NADSYN1 (11734609_at) / RFU RASL12 (11751679_a_at) / Fold change /veh RASL12 (11751679_a_at) / RFU CDKN2B (11736163_a_at) / Fold change /veh CDKN2B (11736163_a_at) / RFU PRF1 (11729649_at) / Fold change /veh PRF1 (11729649_at) / RFU, ZNF638 /// ZNF638-IT1 / Fold change vs veh, ZNF638 /// ZNF638-IT1 / RFU, PANK3 / Fold change vs veh, PANK3 / RFU, SH3YL1 / Fold change vs veh, SH3YL1 / RFU, ZEB2 / Fold change vs veh, ZEB2 / RFU, NRIP1 / Fold change vs veh, NRIP1 / RFU, PTTG1IP / Fold change vs veh, PTTG1IP / RFU, CAPN2 / Fold change vs veh, CAPN2 / RFU, MED14 / Fold change vs veh, MED14 / RFU, SNORA58 / Fold change vs veh, SNORA58 / RFU, C1orf63 / Fold change vs veh, C1orf63 / RFU, LRRFIP1 / Fold change vs veh, LRRFIP1 / RFU, NDUFAF7 / Fold change vs veh, NDUFAF7 / RFU, SLC12A2 / Fold change vs veh, SLC12A2 / RFU, IBTK / Fold change vs veh, IBTK / RFU, ESF1 / Fold change vs veh, ESF1 / Fold change vs veh, TMEM50B / RFU, TAOK1 / Fold change vs veh, TAOK1 / RFU, ACBD3 / Fold change vs veh, ACBD3 / RFU, TMA16 / Fold change vs veh, TMA16 / RFU, RWDD3 / Fold change vs veh, RWDD3 / RFU, BCAT1 / Fold change vs veh, BCAT1 / RFU, EDEM3 / Fold change vs veh, EDEM3 / RFU, TMEM33 / Fold change vs veh, TMEM33 / RFU, WDR75 / Fold change vs veh, WDR75 / RFU, AHCTF1 / Fold change vs veh, AHCTF1 / RFU, TFRC / Fold change vs veh, TFRC / RFU, ZDHHC17 / Fold change vs veh, ZDHHC17 / RFU, NOM1 / Fold change vs veh, NOM1 / RFU, ARL8B / Fold change vs veh, ARL8B / RFU, ZBTB11 / Fold change vs veh, ZBTB11 / RFU, TAMM41 / Fold change vs veh, TAMM41 / RFU, KIAA1704 /// LOC100996395 / Fold change vs veh, KIAA1704 /// LOC100996395 / RFU, ING1 / Fold change vs veh, ING1 / RFU, TRMT61B / Fold change vs veh, TRMT61B / RFU, FUBP3 / Fold change vs veh, FUBP3 / RFU, TP53 / Fold change vs veh, TP53 / RFU, TNKS2 / Fold change vs veh, TNKS2 / RFU, ZFP14 / Fold change vs veh, ZFP14 / RFU, ACTR2 / Fold change vs veh, ACTR2 / RFU, PPP3R1 / Fold change vs veh, PPP3R1 / RFU, PIK3R1 / Fold change vs veh, PIK3R1 / RFU, HNRNPA1 / Fold change vs veh, HNRNPA1 / RFU, RNF170 / Fold change vs veh, RNF170 / RFU, ZNF28 / Fold change vs veh, ZNF28 / RFU, RNGTT / Fold change vs veh, RNGTT / RFU, OGT / Fold change vs veh, OGT / RFU, BRD1 / Fold change vs veh, BRD1 / RFU, MARS / Fold change vs veh, MARS / RFU, ZNF655 / Fold change vs veh, ZNF655 / RFU, FAHD1 / Fold change vs veh, FAHD1 / RFU, BDP1 / Fold change vs veh, BDP1 / RFU, LRRCC1 / Fold change vs veh, LRRCC1 / RFU, ARID1A / Fold change vs veh, ARID1A / RFU, ZNF146 / Fold change vs veh, ZNF146 / RFU, ZNF330 / Fold change vs veh, ZNF330 / RFU, GPN3 / Fold change vs veh, GPN3 / RFU, C9orf123 / Fold change vs veh, C9orf123 / RFU, N4BP2L2 / Fold change vs veh, N4BP2L2 / RFU, ARFIP1 / Fold change vs veh, ARFIP1 / RFU, FAM179B / Fold change vs veh, FAM179B / RFU, BCL10 / Fold change vs veh, BCL10 / RFU, UHRF1BP1L / Fold change vs veh, UHRF1BP1L / RFU, BET1 / Fold change vs veh, BET1 / RFU, CNOT2 / Fold change vs veh, CNOT2 / RFU, ZNF268 / Fold change vs veh, ZNF268 / Fold change vs veh, ZNF507 / RFU, DGCR2 / Fold change vs veh, DGCR2 / RFU, WDSUB1 / Fold change vs veh, WDSUB1 / Fold change vs veh, HSP90B1 /// MIR3652 / RFU, ADSS / Fold change vs veh, ADSS / RFU, GK / Fold change vs veh, GK / RFU, ZNF148 / Fold change vs veh, ZNF148 / RFU, TAF9 / Fold change vs veh, TAF9 / RFU, SLC1A5 / Fold change vs veh, SLC1A5 / RFU, SLMO2 / Fold change vs veh, SLMO2 / RFU, ABCC4 / Fold change vs veh, ABCC4 / RFU, LOC101060439 /// RAP1B / Fold change vs veh, LOC101060439 /// RAP1B / RFU, RFX7 / Fold change vs veh, RFX7 / RFU, GTPBP10 / Fold change vs veh, GTPBP10 / RFU, CNEP1R1 / Fold change vs veh, CNEP1R1 / RFU, BIVM-ERCC5 /// ERCC5 / Fold change vs veh, BIVM-ERCC5 /// ERCC5 / RFU, ILF3 / Fold change vs veh, ILF3 / RFU 11762660_at / Fold change /veh 11762660_at / RFU VCAN (11757783_s_at) / Fold change /veh VCAN (11757783_s_at) / RFU DDX43 (11728927_at) / Fold change /veh DDX43 (11728927_at) / RFU KRT8 (11758188_x_at) / Fold change /veh KRT8 (11758188_x_at) / RFU NKD1 (11759106_at) / Fold change /veh NKD1 (11759106_at) / RFU SRD5A1 (11742802_a_at) / Fold change /veh SRD5A1 (11742802_a_at) / RFU TPSAB1 /// TPSB2 (11721975_s_at) / Fold change /veh TPSAB1 /// TPSB2 (11721975_s_at) / RFU GSTM3 (11746129_a_at) / Fold change /veh GSTM3 (11746129_a_at) / RFU IL23R (11737362_x_at) / Fold change /veh IL23R (11737362_x_at) / RFU TMEM51 (11727254_a_at) / Fold change /veh TMEM51 (11727254_a_at) / RFU PIWIL2 (11732686_x_at) / Fold change /veh PIWIL2 (11732686_x_at) / RFU ORM1 (11744905_x_at) / Fold change /veh ORM1 (11744905_x_at) / RFU CCDC152 (11743942_at) / Fold change /veh CCDC152 (11743942_at) / RFU ECM1 (11717891_a_at) / Fold change /veh ECM1 (11717891_a_at) / RFU IL23R (11748794_a_at) / Fold change /veh IL23R (11748794_a_at) / RFU TNFAIP8L3 (11732012_x_at) / Fold change /veh TNFAIP8L3 (11732012_x_at) / RFU MBOAT4 (11741988_at) / Fold change /veh MBOAT4 (11741988_at) / RFU 11764193_at / Fold change /veh 11764193_at / RFU TMEM53 (11763286_at) / Fold change /veh TMEM53 (11763286_at) / RFU MAGEB2 (11727129_at) / Fold change /veh MAGEB2 (11727129_at) / RFU TMEM200A (11744735_a_at) / Fold change /veh TMEM200A (11744735_a_at) / RFU CCDC152 (11751479_a_at) / Fold change /veh CCDC152 (11751479_a_at) / RFU FAM211A (11726209_a_at) / Fold change /veh FAM211A (11726209_a_at) / RFU RGS16 (11746705_a_at) / Fold change /veh RGS16 (11746705_a_at) / RFU VCAN (11755009_s_at) / Fold change /veh VCAN (11755009_s_at) / RFU RHOB (11743442_s_at) / Fold change /veh RHOB (11743442_s_at) / RFU RGS16 (11720943_a_at) / Fold change /veh RGS16 (11720943_a_at) / RFU RGS16 (11720944_at) / Fold change /veh RGS16 (11720944_at) / RFU, VPS4B / Fold change vs veh, VPS4B / RFU, CREB1 / Fold change vs veh, CREB1 / RFU, DNAJC13 / Fold change vs veh, DNAJC13 / RFU, GNAQ / Fold change vs veh, GNAQ / RFU, CDK5R1 / Fold change vs veh, CDK5R1 / RFU, ZRANB3 / Fold change vs veh, ZRANB3 / RFU, CUL4A / Fold change vs veh, CUL4A / RFU, CCNY / Fold change vs veh, CCNY / RFU, UFL1 / Fold change vs veh, UFL1 / RFU, COG3 / Fold change vs veh, COG3 / RFU, DIAPH2 / Fold change vs veh, DIAPH2 / RFU, SKA2 / Fold change vs veh, SKA2 / RFU, AFF3 / Fold change vs veh, AFF3 / RFU, LMF1 / Fold change vs veh, LMF1 / RFU, IPO11 / Fold change vs veh, IPO11 / RFU, DFFB / Fold change vs veh, DFFB / RFU, FOXP1 / Fold change vs veh, FOXP1 / RFU, CARD8 / Fold change vs veh, CARD8 / RFU, STRN3 / Fold change vs veh, STRN3 / RFU, ADK / Fold change vs veh, ADK / RFU, RASSF2 / Fold change vs veh, RASSF2 / RFU, WIPF1 / Fold change vs veh, WIPF1 / RFU, LARP1B / Fold change vs veh, LARP1B / RFU, RASA1 / Fold change vs veh, RASA1 / RFU, RB1 / Fold change vs veh, RB1 / RFU, PPFIA1 / Fold change vs veh, PPFIA1 / RFU, MAT2A / Fold change vs veh, MAT2A / RFU, CCT5 / Fold change vs veh, CCT5 / RFU, WDR92 / Fold change vs veh, WDR92 / RFU, CUX1 / Fold change vs veh, CUX1 / RFU, TTC7A / Fold change vs veh, TTC7A / RFU, TMEM135 / Fold change vs veh, TMEM135 / RFU, DEPTOR / Fold change vs veh, DEPTOR / RFU, CPM / Fold change vs veh, CPM / RFU, DNAJB6 / Fold change vs veh, DNAJB6 / RFU, CACNA2D3 / Fold change vs veh, CACNA2D3 / RFU, DTX4 / Fold change vs veh, DTX4 / RFU, TFCP2 / Fold change vs veh, TFCP2 / RFU, GMCL1 /// GMCL1P1 / Fold change vs veh, GMCL1 /// GMCL1P1 / RFU, AEBP2 / Fold change vs veh, AEBP2 / RFU, SNHG1 /// SNORD22 /// SNORD25 /// SNORD26 /// SNORD27 /// SNORD28 /// SNORD29 /// SNORD31 / Fold change vs veh, SNHG1 /// SNORD22 /// SNORD25 /// SNORD26 /// SNORD27 /// SNORD28 /// SNORD29 /// SNORD31 / Fold change (Aza/veh), C12orf56 (ProbeSet 11735607_a_at) / Fold change (ACY-1035/veh), C12orf56 (ProbeSet 11735607_a_at) / Fold change (Aza/veh), FGFR1OP (ProbeSet 11751329_s_at) / Fold change (ACY-1035/veh), FGFR1OP (ProbeSet 11751329_s_at) / Fold change (Aza/veh), VPS36 (ProbeSet 11739960_a_at) / Fold change (ACY-1035/veh), VPS36 (ProbeSet 11739960_a_at) / RFU SYPL1 (11715823_x_at) / Fold change /veh SYPL1 (11715823_x_at) / RFU IGFBP7 (11715501_s_at) / Fold change /veh IGFBP7 (11715501_s_at) / RFU REEP3 (11722064_at) / Fold change /veh REEP3 (11722064_at) / RFU IGLL1 (11728026_x_at) / Fold change /veh IGLL1 (11728026_x_at): dose or concentration left out as unconfirmed
Settings: ProbeSet 11763895_x_at; LIST B

Nc1ncn([C@@H]2O[C@H](CO)[C@@H](O)[C@H]2O)c(=O)n1 [azacitidine]
RFU, SNORA58: 17.25 RFU
